Assay results published in patent US20230114728A1 (Venatorx Pharmaceuticals, Inc., priority 2019, published 2023).
≈ marks a conversion by molar mass, not a printed value.

Tests used:
[1] = tested on: A. baumannii CDC-0045 producing TEM-1D, OXA-23, and OXA-69; assay: Broth microdilution MIC in iron-depleted CAMHB (IDM); assay type: cell-based; conditions: Acinetobacter baumannii, read-out: Minimum Inhibitory Concentration, CDC-0045
P. aeruginosa CDC-0110 = assay: as above; assay type: cell-based; conditions: Pseudomonas aeruginosa, CDC0110, read-out: Minimum Inhibitory Concentration, P. aeruginosa CDC-0110
Procedure: To determine the ability of test compounds to inhibit the growth bacterial strains under conditions of iron-depletion, classic cell based broth microdilution minimum inhibitory concentration (MIC) assays were employed. MIC assays are performed according to CLSI methods except where otherwise noted (CLSI, 2018 and CLSI, 2019). The reference type strain E. coli ATCC 25922 was used to determine the ability of the PBP inhibitors to inhibit the growth of Enterobacteriaceae. Wild-type P. aeruginosa ATCC 27853, A. baumannii ATCC 17978 and A. baumannii ATCC 19606, along with the hyper-permeable P. aeruginosa ATCC 35151, an engineered efflux pump-compromised strain of P. aeruginosa (ΔmexAB-oprM), and an engineered efflux-pump compromised strain of A. baumannii IL123 (ABΔ3-ARAEcPore) were used to determine the ability of PBP inhibitors to penetrate the outer membrane of P. aeruginosa and A. baumannii and assess antibacterial activity against these important gram-negative organisms.
Briefly, cryo-preserved bacterial cultures of challenge strains are streaked for isolation on appropriate agar medium, in this case cation-adjusted Mueller Hinton agar. Following incubation to allow growth of the colonies, plates are sealed with parafilm and stored refrigerated for up to two weeks. For preparation of assay inoculum and to ensure low variability, at least 5 colonies are picked from the agar plates with an inoculating loop and aseptically transferred to a culture tube containing 3 mL of iron-depleted cation-adjusted Mueller Hinton broth (IDM)—see below for IDM preparation. The broth culture is grown for 3-5 hours at 37° C. with shaking at 200 rpm. Meanwhile, 2-fold serial dilutions of test compounds are conducted in a 96-well plate with a final volume of 75 μL per well at 2-fold the final desired concentration. After the dilution plates are set up the growing cultures are then diluted in a cuvette containing IDM and the optical density is measured at 600 nm. The inoculum is diluted such that 75 μL of this culture in IDM results in a starting bacterial concentration of 2-8×10^5 CFU/mL when added to the dilution plates. The plates are incubated for 16-20 hours for Enterobacteriaceae and Pseudomonas and 20-24 hours for Acinetobacter at 37° C. The MIC values are read visually as the lowest concentration well with no bacterial growth.
Method for Iron-Depleted Cation-Adjusted Mueller Hinton Broth (IDM) Preparation:
• Prepare cation-adjusted Mueller Hinton broth as per the manufacturer's recommendations and autoclave. • Add 100 g/L Chelex 100 resin, cover with foil and incubate with stirring for 2 hours • Remove Chelex 100 resin by filtration with 0.45 μm filter flask • Add the following back to the medium: • CaCl2 dihydrate: 82.5 mg/L • MgCl2 hexahydrate: 94.1 mg/L • ZnSO4: 10 μM • Adjust pH of medium to 7.3 with 5 N HCl • Sterilize using a 0.22 µm filter flask

N. gonorrhoeae PBP2 = biological target: T1, N. gonorrhoeae PBP2 (Neisseria gonorrhoeae, UniProt P08149); assay: Bocillin-FL fluorescence polarization competition binding assay, N. gonorrhoeae PBP2; conditions: fluorescence polarization competition binding assay using Bocillin-FL; read-out: N. gonorrhoeae PBP2 Potency
T1 construct: made in house
T1 sequence (P08149 whole entry): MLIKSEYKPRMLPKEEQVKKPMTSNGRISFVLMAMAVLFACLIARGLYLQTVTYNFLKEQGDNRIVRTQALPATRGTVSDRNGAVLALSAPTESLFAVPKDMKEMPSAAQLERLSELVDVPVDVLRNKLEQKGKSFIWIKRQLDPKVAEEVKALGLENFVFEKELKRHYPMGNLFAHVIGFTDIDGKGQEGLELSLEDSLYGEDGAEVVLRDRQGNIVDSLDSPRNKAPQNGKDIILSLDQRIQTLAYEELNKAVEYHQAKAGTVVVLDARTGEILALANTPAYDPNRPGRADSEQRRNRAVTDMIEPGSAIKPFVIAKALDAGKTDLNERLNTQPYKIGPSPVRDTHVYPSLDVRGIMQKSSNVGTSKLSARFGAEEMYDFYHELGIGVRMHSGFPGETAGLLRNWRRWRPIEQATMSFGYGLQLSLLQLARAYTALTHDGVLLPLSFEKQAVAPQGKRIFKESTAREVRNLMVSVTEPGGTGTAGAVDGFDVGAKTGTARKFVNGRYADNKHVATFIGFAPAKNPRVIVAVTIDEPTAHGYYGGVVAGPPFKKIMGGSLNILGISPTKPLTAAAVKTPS
Description: Example I: Experimental Method for Penicillin-Binding Protein Binding Assays with Bocillin-FL Via Fluorescence Polarization
To determine the ability of boronic acid-based test PBP inhibitors to bind Penicillin Binding Proteins (PBPs), Bocillin-FL (fluorescently-labeled penicillin V; ThermoFisher Scientific) was used in a fluorescence polarization (FP) competition binding assay to assess inhibitor binding to PBP2, PBP3 or PBP4 from Escherichia coli (K12), PBP3 from Pseudomonas aeruginosa (PA01), PBP1a, PBP2 and PBP3 from Acinetobacter baumannii (ATCC 19606), and PBP2 from Neiserria gonorrheae (FA19). PBPs were cloned and purified as described previously (E. coli PBPs, King, D. T, et al., ACS Infectious Diseases 2015, 1, 175-184; P. aeruginosa PBP3, Han et. al., PNAS 2010, 107 (51), 22002-22007; A. baumannii PBPs, Penwell et. al., Antimicrob. Agents Chemother. 2015, 59 (3), 1680-1689; N. gonorrhoeae PBP2, Singh et. al., J Biol. Chem. 2019, 294 (38), 14020-14032). To establish assay conditions for competition binding, enzyme titration/saturation binding experiments were initially performed. Bocillin-FL was prepared at 0.2 μM in a buffer comprised of 50 mM Hepes (pH 8.0), 300 mM NaCl and 5% (v/v) glycerol for reactions with E. coli, P. aeruginosa and N. gonorrhoeae PBPs, and 25 mM Tris (pH 8.0), 200 mM NaCl and 10% (v/v) glycerol and 0.005% (v/v) Tween 20 for reactions with A. baumannii PBPs. Saturation binding was performed by mixing 40 μl of PBP solutions ranging in concentrations from 0-24 μM with 40 μl of the 0.2 μM Bocillin-FL solution, in individual wells of a black 384-well microplate. FP was measured immediately upon mixing (Excitation, 490 nm; Emission, 520 nm; g-factor, 0.96), using a Cytation3 (BioTek) microplate reader and measured continuously for up to 120 minutes. […] The competition binding assay (80 μl final volume) was validated using beta-lactams and PBPs at final concentrations of: 1.5 μM, E. coli PBP3; 0.75 μM, P. aeruginosa PBP3; 1 μM A. baumannii PBP1a; 2.5 μM A. baumannii PBP2; 0.2 μM A. baumannii PBP3; and […] N. gonorrhoeae PBP2. Bocillin-FL was at 0.1 μM (0.05 μM with A. baumannii PBP1a) and beta-lactam concentrations ranged from 0-1000 μM. […] Bocillin-FL was added and the FP immediately measured for up to 60 minutes (90 minutes for E. coli PBP2). […] The beta-lactam potency was reported as the concentration of beta-lactam required to reduce the amount of PBP bound-Bocillin-FL by 50% (EC50). […] Binding assays for boronic acid PBP inhibitors were performed in an identical fashion for the respective PBPs

Row | SMILES | MIC [1] [µg/mL] | MIC (P. aeruginosa CDC-0110) [µg/mL] | EC50 (N. gonorrhoeae PBP2) [µM]
1 | NCCCN1CCN(C(=O)N[C@H](C(=O)N[C@H]2Cc3ccc(F)c(C(=O)O)c3OB2O)c2ccc(O)c(O)c2Cl)C(=O)C1=O (single isomer, unassigned) [Example 28] | 32 to 64 (≈ 51.5 to 103 µM) | 8 to 16 (≈ 12.9 to 25.7 µM) | –
2 | CS(=O)(=O)N1CCN(C(=O)N[C@@H](C(=O)N[C@H]2Cc3ccc(F)c(C(=O)O)c3OB2O)c2c(F)cc(O)c(O)c2Cl)C1=O (single isomer, unassigned) [Example 35] | 0.25 (≈ 0.395 µM) | 0.5 to 1 (≈ 0.79 to 1.58 µM) | –
3 | NCCCN1CCN(C(=O)N[C@@H](C(=O)N[C@H]2Cc3ccc(F)c(C(=O)O)c3OB2O)c2c(F)cc(O)c(O)c2F)C(=O)C1=O (single isomer, unassigned) [Example 41] | 0.5 to 1 (≈ 0.802 to 1.6 µM) | 2 to 4 (≈ 3.21 to 6.42 µM) | –
4 | CCN1CCN(C(=O)N[C@@H](C(=O)N[C@H]2Cc3cccc(C(=O)O)c3OB2O)c2cc(O)cc(O)c2)C(=O)C1=O (single isomer, unassigned) [Example 82] | – | – | < 10
5 | NCCN1CCN(C(=O)N[C@H](C(=O)N[C@H]2Cc3cccc(C(=O)O)c3OB2O)c2ccc(C(=O)O)cc2)C(=O)C1=O (single isomer, unassigned) [Example 83] | – | – | < 10
6 | NCCN1CCN(C(=O)N[C@@H](C(=O)N[C@H]2Cc3cccc(C(=O)O)c3OB2O)c2ccc(C(=O)O)cc2)C(=O)C1=O (single isomer, unassigned) [Example 84] | – | – | < 10
7 | NCCN1CCN(C(=O)N[C@H](C(=O)N[C@H]2Cc3cccc(C(=O)O)c3OB2O)c2ccc(O)cc2Cl)C(=O)C1=O (single isomer, unassigned) [Example 85] | – | – | 10 to 30
8 | CCN1CCN(C(=O)N[C@@H](C(=O)N[C@H]2Cc3cccc(C(=O)O)c3OB2O)c2cc(Cl)c(O)cc2Cl)C(=O)C1=O (single isomer, unassigned) [Example 91] | – | – | < 10
9 | CCN1CCN(C(=O)N[C@H](C(=O)N[C@H]2Cc3cccc(C(=O)O)c3OB2O)c2cc(Cl)c(O)cc2Cl)C(=O)C1=O (single isomer, unassigned) [Example 92] | – | – | < 10
10 | O=C(O)c1ccc(C(NC(=O)c2ccc(O)c(O)c2Cl)C(=O)N[C@H]2Cc3cccc(C(=O)O)c3OB2O)cc1F (stereo partly drawn) [Example 7, (3R)-3-(2-(4-carboxy-3-fluorophenyl)-2-(2-chloro-3,4-dihydroxybenzamido)acetamido)-2-hydroxy-3,4-dihydro-2H-benzo[e][1,2]oxaborinine-8-carboxylic acid] | 32 to 64 (≈ 55.9 to 112 µM) | 2 to 4 (≈ 3.49 to 6.98 µM) | –
11 | O=C(NC(C(=O)N[C@H]1Cc2ccc(F)c(C(=O)O)c2OB1O)c1ncc(O)cc1F)c1ccc(O)c(O)c1Cl (stereo partly drawn) [Example 8, (3R)-3-(2-(2-chloro-3,4-dihydroxybenzamido)-2-(3-fluoro-5-hydroxypyridin-2-yl)acetamido)-7-fluoro-2-hydroxy-3,4-dihydro-2H-benzo[e][1,2]oxaborinine-8-carboxylic acid] | 32 to 64 (≈ 56.8 to 114 µM) | 0.5 to 1 (≈ 0.887 to 1.77 µM) | –
12 | O=C(Nc1ccc(O)c(O)c1Cl)NC(C(=O)N[C@H]1Cc2ccc(F)c(C(=O)O)c2OB1O)c1ncc(O)cc1F (stereo partly drawn) [Example 9, (3R)-3-(2-(3-(2-chloro-3,4-dihydroxyphenyl)ureido)-2-(3-fluoro-5-hydroxypyridin-2-yl)acetamido)-7-fluoro-2-hydroxy-3,4-dihydro-2H-benzo[e][1,2]oxaborinine-8-carboxylic acid] | 32 to 64 (≈ 55.3 to 111 µM) | 32 to 64 (≈ 55.3 to 111 µM) | –
13 | CCN1CCN(C(=O)NC(C(=O)N[C@H]2Cc3cccc(C(=O)O)c3OB2O)c2ccc(C(=O)O)c(F)c2)C(=O)C1=O (stereo partly drawn) [Example 31, (3R)-3-(2-(4-carboxy-3-fluorophenyl)-2-(4-ethyl-2,3-dioxopiperazine-1-carboxamido)acetamido)-2-hydroxy-3,4-dihydro-2H-benzo[e][1,2]oxaborinine-8-carboxylic acid] | – | – | < 10
14 | CCN1CCN(C(=O)NC(C(=O)N[C@H]2Cc3cccc(C(=O)O)c3OB2O)c2ccc(C(N)=O)c(O)c2)C(=O)C1=O (stereo partly drawn) [Example 45, (3R)-3-(2-(4-carbamoyl-3-hydroxyphenyl)-2-(4-ethyl-2,3-dioxopiperazine-1-carboxamido)acetamido)-2-hydroxy-3,4-dihydro-2H-benzo[e][1,2]oxaborinine-8-carboxylic acid] | – | – | < 10
15 | CCN1CCN(C(=O)NC(C(=O)N[C@H]2Cc3cccc(C(=O)O)c3OB2O)c2cccc(O)c2)C(=O)C1=O (stereo partly drawn) [Example 68, (3R)-3-(2-(4-ethyl-2,3-dioxopiperazine-1-carboxamido)-2-(3-hydroxyphenyl)acetamido)-2-hydroxy-3,4-dihydro-2H-benzo[e][1,2]oxaborinine-8-carboxylic acid] | – | – | < 10
16 | CCN1CCN(C(=O)NC(C(=O)N[C@H]2Cc3cccc(C(=O)O)c3OB2O)c2cccc(N)c2)C(=O)C1=O (stereo partly drawn) [Example 72, (3R)-3-(2-(3-aminophenyl)-2-(4-ethyl-2,3-dioxopiperazine-1-carboxamido)acetamido)-2-hydroxy-3,4-dihydro-2H-benzo[e][1,2]oxaborinine-8-carboxylic acid] | – | – | < 10
17 | NCCN1CCN(C(=O)NC(C(=O)N[C@H]2Cc3cccc(C(=O)O)c3OB2O)c2c(F)cc(O)cc2Cl)C(=O)C1=O (stereo partly drawn) [Example 94, (3R)-3-(2-(4-(2-aminoethyl)-2,3-dioxopiperazine-1-carboxamido)-2-(2-chloro-6-fluoro-4-hydroxyphenyl)acetamido)-2-hydroxy-3,4-dihydro-2H-benzo[e][1,2]oxaborinine-8-carboxylic acid] | – | – | < 10
18 | CCN1CCN(C(=O)NC(C(=O)N[C@H]2Cc3cccc(C(=O)O)c3OB2O)c2c(F)cc(O)cc2Cl)C(=O)C1=O (stereo partly drawn) [Example 95, (3R)-3-(2-(2-chloro-6-fluoro-4-hydroxyphenyl)-2-(4-ethyl-2,3-dioxopiperazine-1-carboxamido)acetamido)-2-hydroxy-3,4-dihydro-2H-benzo[e][1,2]oxaborinine-8-carboxylic acid] | – | – | < 10
